# In patent US10945433B2, “Method for treating coffee rust, citrus black spot, citrus scab and banana black sigatoka diseases” (Bayer CropScience Aktiengesellschaft, priority 2015, dated 2021):
# Experiments:
# [1] = tested on: Mycosphaerella fijiensis; assay: Control of Black Sigatoka on banana crop, field trials; format: in vivo; details: for Number healthy Leaves 25DAT13: Trial B, untreated 8.7; for Number healthy Leaves 25DAT13 / Number healthy Leaves 2DAT7: per banana plant at end of trial; for Number healthy Leaves 2DAT7: Trial A, untreated 8.5
# Description: Two field trials were implemented in 2013 in Costa Rica and Philippines to evaluate the performance of compounds against Mycosphaerella fijiensis infection on Banana.
# A typical fungicide formulation containing 100 g of compound per liter was applied every 7 to 12 days in consecutive foliar sprays. The trials were carried out according to standard experimental practice with spay adjuvant and mineral oil used in tank mix as it is usual on banana plantation in each country.
# Data are expressed in Number of healthy leaves present at the end of the trial on each Banana plant (more leaves present mean better quantity and quality of harvest).
# [2] = tested on: Hemileia vastatrix; assay: Control of rust (Hemileia vastatrix) on coffee crop, field trials; format: in vivo; details: 50 g a.i./ha, coffee leaves, foliar sprays, vs untreated
# Description: Four field trials were implemented in Brazil in 2013 and 2014 to evaluate the performance of compounds against Hemileia vastatrix on Coffee.
# The trials were carried out according to standard experimental practice to protect the canopy from the rust, responsible to defoliation and then yield losses. A typical fungicide formulation containing 100 g of compound per liter was applied in consecutive foliar sprays at 3 occasions every 30 to 50 days in most of the trials. Spray volumes vary from 400 L to 500 L/Ha.
# Assessments were realized on leaves—Data are expressed in % efficacy against rust on leaves compared to untreated plants.
# [3] = tested on: Guignardia citricarpa; assay: Control of black spot (Guignardia citricarpa) on citrus crop, field trials; format: in vivo; details: 2000 to 3000 L/Ha
# Text: (§1) Five field trials were implemented in South Africa, Brazil and Japan in 2013 and 2014 to evaluate the performance of compounds against two main diseases having high effect on marketable yield: Elsinoe fawcettii and Guignardia citricarpa are hosted by many citrus species. Both are able to infest fruits and both are quarantine pathogens limiting the exportation outside of the growing countries. The protection against these two pathogens gives a clear advantage for farmers to be present on the export market.
# (§2) The trials were carried out according to standard experimental practice to protect the canopy including fruits in each country. A typical fungicide formulation containing 100 g of compound per liter was applied in consecutive foliar sprays at 5 to 6 occasions every month to control black spot and at 1 to 3 occasions every 14 days to control Scab infections. Spray volumes vary from 2000 L to 3000 L/Ha.
# [4] = tested on: Elsinoe fawcettii; assay: Control of scab (Elsinoe fawcettii) on citrus crop, field trials; format: in vivo; details: 3000 L/Ha
# Text: as §1, §2
# [5] = log P determination by HPLC on reversed-phase column (EEC Directive 79/831 Annex V.A8); format: physicochemical
# Description: In table 1, the log P values were determined in accordance with EEC Directive 79/831 Annex V.A8 by HPLC (High Performance Liquid Chromatography) on a reversed-phase column (C 18), using the method described below:
# Temperature: 40° C.; Mobile phases: 0.1% aqueous formic acid and acetonitrile; linear gradient from 10% acetonitrile to 90% acetonitrile.
# Calibration was carried out using unbranched alkan-2-ones (comprising 3 to 16 carbon atoms) with known log P values (determination of the log P values by the retention times using linear interpolation between two successive alkanones). lambda-max-values were determined using UV-spectra from 200 nm to 400 nm and the peak values of the chromatographic signals.
compound,measurement,setting,value
"O=C(Nc1ccccc1-c1ccc(Cl)cc1)c1cccnc1Cl [Boscalid, reference compound]",Number healthy Leaves 25DAT13,[1]; 150 g a.i./ha,13.1
"CC(C)c1ccc(Cl)cc1CN(C(=O)c1c(C(F)F)nn(C)c1F)C1CC1 [Compound A5, N-(5-chloro-2-isopropylbenzyl)-N-cyclopropyl-3-(difluoromethyl)-5-fluoro-1-methyl-1H-pyrazole-4-carboxamide]",% Efficacy (Abbott),[2]; Trial A,84%
same,% Efficacy (Abbott),[2]; Trial B,61%
same,% Efficacy (Abbott),[2]; Trial C,95%
same,% Efficacy (Abbott),[2]; Trial D,73%
same,% Efficacy (Abbott),"[3]; Trial A, 10 g a.i./100 L",73%
same,% Efficacy (Abbott),"[3]; Trial A, 15 g a.i./100 L",70%
same,% Efficacy (Abbott),"[3]; Trial B, 10 g a.i./100 L",72%
same,% Efficacy (Abbott),"[3]; Trial B, 15 g a.i./100 L",83%
same,% Efficacy (Abbott),"[3]; Trial C, 10 g a.i./100 L",91.3%
same,% Efficacy (Abbott),"[3]; Trial C, 15 g a.i./100 L",93.9%
same,% Efficacy (Abbott),"[4]; Trial A, 2.5 g a.i./100 L",96%
same,% Efficacy (Abbott),"[4]; Trial A, 5 g a.i./100 L",95%
same,% Efficacy (Abbott),"[4]; Trial B, 2.5 g a.i./100 L",92%
same,% Efficacy (Abbott),"[4]; Trial B, 5 g a.i./100 L",70%
same,average gain in leaves per plant,"[1]; 6.25 g ai/ha, banana, Black Sigatoka",about +3 leaves per plant
same,Number healthy Leaves 2DAT7,[1]; 6.25 g a.i./ha,11.5
same,Number healthy Leaves 2DAT7,[1]; 12.5 g a.i./ha,12.2
same,Number healthy Leaves 2DAT7,[1]; 25 g a.i./ha,12
same,Number healthy Leaves 25DAT13,[1]; 6.25 g a.i./ha,13.4
same,Number healthy Leaves 25DAT13,[1]; 12.5 g a.i./ha,14.4
same,Number healthy Leaves 25DAT13,[1]; 25 g a.i./ha,16.2
"CCc1ccc(F)cc1CN(C(=O)c1c(C(F)F)nn(C)c1F)C1CC1 [Compound A6, N-cyclopropyl-3-(difluoromethyl)-N-(2-ethyl-5-fluorobenzyl)-5-fluoro-1-methyl-1H-pyrazole-4-carboxamide]",chromatographic logP,"[5]; reversed-phase C18 HPLC column, HPLC, reversed-phase C 18, 40° C., 0.1% aqueous formic acid and acetonitrile gradient",3.14
N-cyclopropyl-3-(difluoromethyl)-5-fluoro-N-(2-isopropylbenzyl)-1-methyl-1H-pyrazole-4-carbothio-amide [Compound A20],logP,[5],4.36
